ChEMBL document CHEMBL1125385, “Novel inhibitors of prolyl 4-hydroxylase. 2. 5-Amide substituted pyridine-2-carboxylic acids” (J Med Chem, 1992)

Test system: Prolyl 4-hydroxylase (Gallus gallus); call rule not given here
Assay: Inhibition of Prolyl 4-hydroxylase activity in cultured embryonic chick tendon cells; NA=Not active

With CN(C)c1ccc(C(=O)Nc2ccc(C(=O)O)nc2)cc1 the IC50 was “Not Active”.
With COc1ccccc1NC(=O)c1ccc(C(=O)O)nc1 the IC50 was “Not Active”.
In the case of O=C(O)c1ccc(NC(=O)c2ccccc2F)cn1, the IC50 is reported as “Not Active”.
For O=C(Nc1ccccc1Cl)c1ccc(C(=O)O)nc1, the IC50 was “Not Active”.
In the case of COc1ccc(NC(=O)c2ccc(C(=O)O)nc2)c(OC)c1, the IC50 is reported as “Not Active”.
In the case of CCOc1ccc(C(=O)Nc2ccc(C(=O)O)nc2)cc1, the IC50 is reported as “Not Active”.
In the case of CN(C)c1ccc(NC(=O)c2ccc(C(=O)O)nc2)cc1, the IC50 is reported as “Not Active”.
For Cc1ccc(NC(=O)c2ccc(C(=O)O)nc2)cc1, the IC50 was “Not Active”.
